Test results from PMC3986099, “Development of a Radioiodinated Triazolopyrimidine Probe for Nuclear Medical Imaging of Fatty Acid Binding Protein 4” (PLoS ONE, 2014).

Columns and labels:
C6 tumors = assay: Biodistribution in C6 bearing mice; format: in vivo, Balb/c nu-nu mice; conditions: for Blood / Heart / Intestine / Kidney / Liver / Lung / Muscle / Pancreas / Spleen / Stomach / Tumor / T/B ratio / T/M ratio: C6 bearing mice, i.v.; for T/B ratio: tumor to blood; for T/M ratio: tumor to muscle
Experimental: C6 cells were suspended in PBS(-) followed by subcutaneous inoculation into the right hind legs of Balb/c nu-nu mice (5×10^6 cells/100 µL).
A saline solution (5% ethanol, v/v) of [^125I]TAP1 (0.06 MBq) was injected intravenously into the tail vein of C6 cell implantation model Balb/c nu-nu mice (males, 8 weeks old). The mice were sacrificed at various post-injection time points and organs, including tumor tissues, were removed. The weight and radioactivity of the organs were measured as mentioned above. Several model mice were sacrificed 3 hr after the injection by transcardial perfusion of saline (20 ml) under anesthesia with chloral hydrate. The weight and radioactivity of the removed organs, including tumor tissues, were measured as mentioned above.

[1] = Metabolite analysis in liver and kidneys; format: in vivo, ddY mice; conditions: 1 hr after i.v. administration, normal mice
Experimental: A saline solution (5% ethanol, v/v) of [^125I]TAP1 (1.20 MBq) was injected intravenously into the tail vein of ddY mice (males, 5 weeks old), and animals were sacrificed 1 hr post-injection. The liver and kidneys were removed and homogenized in 1 ml ice-cold 30 mM Tris-HCl buffer (pH = 8.5) containing 5 mM magnesium acetate at 4 °C. After addition of 3 ml cold methanol and vortexing, tissue samples were centrifuged (10,000×g, 5 min). The supernatants were filtered, and the filtrate was analyzed by RP-HPLC as described above.

his-tagged FABP4 = biological target: T1, his-tagged FABP4 (Homo sapiens, UniProt P15090); assay: Selectivity binding assay with FABP immobilized on Ni-NTA magnetic agarose beads
T1 construct: purchased Cayman Chemical Company
T1 sequence (P15090 whole entry): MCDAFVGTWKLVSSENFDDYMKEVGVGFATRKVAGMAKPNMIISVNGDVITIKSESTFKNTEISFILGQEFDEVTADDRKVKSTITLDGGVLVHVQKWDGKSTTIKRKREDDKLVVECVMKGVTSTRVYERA
Experimental: (§1) For the selectivity binding assay, his-tagged FABP3 (0.75 mg/ml), FABP4 (0.75 mg/ml) and FABP5 (0.70 mg/ml) in 50 mM phosphate buffer containing 100 mM NaCl (20% glycerol, v/v, pH = 7.2) were used. Immobilization was performed following the manufacturer's procedures. Each solution of his-tagged FABP3 ([…], 1.5 µg), FABP4 (0.002 ml, 1.5 µg) or FABP5 (0.002 ml, 1.4 µg) was incubated with 0.02 ml Ni-NTA Magnetic Agarose Beads (Qiagen) and 0.5 ml protein binding buffer (50 mM NaH2PO4, 300 mM NaCl, 10 mM imidazole, pH = 8.0) at room temperature for 1 hr. After supernatant removal, protein binding buffer with 1% BSA was added, and the mixture was incubated at room temperature for 30 min. After removal of the supernatant, 0.4 ml of interaction buffer (50 mM NaH2PO4, 300 mM NaCl, 10 mM imidazole, and 0.005% Tween, v/v, pH = 8.0) and 0.05 ml [^125I]TAP1 (0.01 MBq) in interaction buffer (5% ethanol, v/v) were added. For measurement of non-specific binding, 0.05 ml of nonradioactive TAP1 in interaction buffer (5% ethanol, v/v, 11.3 µM) was added with the [^125I]TAP1. After incubation at room temperature for 2 hr, the supernatants were removed, and the beads washed with interaction buffer (5% ethanol, v/v). The radioactivity of beads in the tubes was measured with a well-type γ-counter (1480 Wizard3, PerkinElmer Japan Co., Osaka, Japan). Binding ratios were calculated as (radioactivity of beads)/(total applied radioactivity)/(protein abundance on beads)×100 (%Dose/µg protein).

his-tagged FABP3 = biological target: T2, his-tagged FABP3 (Homo sapiens, UniProt P05413); assay: as above; conditions: immobilized FABP3, 2 hr, room temperature
T2 construct: purchased Cayman Chemical Company
T2 sequence (P05413 whole entry): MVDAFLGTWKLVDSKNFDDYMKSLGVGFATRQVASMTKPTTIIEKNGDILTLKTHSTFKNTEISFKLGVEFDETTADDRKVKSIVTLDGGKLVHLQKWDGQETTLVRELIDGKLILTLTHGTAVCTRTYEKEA
Experimental: as §1

his-tagged FABP5 = biological target: T3, his-tagged FABP5 (Homo sapiens, UniProt Q01469); assay: as above; conditions: immobilized FABP5, 2 hr, room temperature
T3 construct: purchased Cayman Chemical Company
T3 sequence (Q01469 whole entry): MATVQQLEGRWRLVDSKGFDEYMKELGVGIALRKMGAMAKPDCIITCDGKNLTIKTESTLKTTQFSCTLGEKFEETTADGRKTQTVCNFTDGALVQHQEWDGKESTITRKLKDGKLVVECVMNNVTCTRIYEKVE
Experimental: as §1

## O=c1cc(COc2cccc([125I])c2)[nH]c2nc(-c3ccccc3)nn12 [[^125I]TAP1]
C6 tumors; 15 min after injection
  radioactivity accumulation in tumors (peak): 2.26±0.45 %ID/g
C6 tumors; 3 hr after injection
  radioactivity accumulation in C6 tumors: 1.37±0.24 % dose/g
C6 tumors; 3 hr after injection, sacrificed by decapitation
  tumor accumulation, decapitation: 0.85±0.18 %ID/g
C6 tumors; 3 hr after injection, sacrificed by transcardial perfusion
  tumor accumulation, transcardial perfusion: 0.96±0.18 %ID/g
C6 tumors; 3 hr after probe injection
  tumor to muscle ratio: 3.6
C6 tumors; 5 min
  Blood: 10.40±2.34 % injected dose per gram
  Heart: 3.36±0.64 % injected dose per gram
  Intestine: 2.35±0.34 % injected dose per gram
  Kidney: 29.66±2.24 % injected dose per gram
  Liver: 46.01±5.99 % injected dose per gram
  Lung: 6.76±1.12 % injected dose per gram
  Muscle: 1.05±0.33 % injected dose per gram
  Pancreas: 2.55±0.31 % injected dose per gram
  Spleen: 2.20± 0.44 % injected dose per gram
  Stomach: 0.42±0.16 % injected dose per organ
  Tumor: 1.94±0.44 % injected dose per gram
  T/B ratio: 0.19±0.04
  T/M ratio: 1.94±0.52
C6 tumors; 15 min
  Blood: 6.60±0.61 % injected dose per gram
  Heart: 2.45±0.41 % injected dose per gram
  Intestine: 5.08±0.95 % injected dose per gram
  Kidney: 62.82±9.70 % injected dose per gram
  Liver: 37.58±2.88 % injected dose per gram
  Lung: 4.26±0.19 % injected dose per gram
  Muscle: 0.74±0.15 % injected dose per gram
  Pancreas: 1.20±0.20 % injected dose per gram
  Spleen: 1.09±0.10 % injected dose per gram
  Stomach: 1.02±0.38 % injected dose per organ
  Tumor: 2.26±0.45 % injected dose per gram
  T/B ratio: 0.34±0.06
  T/M ratio: 3.08±0.10
C6 tumors; 30 min
  Blood: 4.74±1.17 % injected dose per gram
  Heart: 1.76±0.40 % injected dose per gram
  Intestine: 7.97±1.32 % injected dose per gram
  Kidney: 77.74±8.14 % injected dose per gram
  Liver: 42.20±1.51 % injected dose per gram
  Lung: 3.16±1.07 % injected dose per gram
  Muscle: 0.57±0.12 % injected dose per gram
  Pancreas: 0.88±0.13 % injected dose per gram
  Spleen: 0.84±0.14 % injected dose per gram
  Stomach: 0.60±0.13 % injected dose per organ
  Tumor: 1.63±0.38 % injected dose per gram
  T/B ratio: 0.35±0.03
  T/M ratio: 2.96±0.73
C6 tumors; 60 min
  Blood: 3.25±0.66 % injected dose per gram
  Heart: 1.12±0.17 % injected dose per gram
  Intestine: 11.59±0.20 % injected dose per gram
  Kidney: 71.54±8.25 % injected dose per gram
  Liver: 30.46±3.28 % injected dose per gram
  Lung: 2.19±0.52 % injected dose per gram
  Muscle: 0.37±0.05 % injected dose per gram
  Pancreas: 0.63±0.08 % injected dose per gram
  Spleen: 0.65±0.08 % injected dose per gram
  Stomach: 0.73±0.40 % injected dose per organ
  Tumor: 1.09±0.05 % injected dose per gram
  T/B ratio: 0.34±0.05
  T/M ratio: 2.95±0.41
C6 tumors; 180 min
  Blood: 3.29±0.40 % injected dose per gram
  Heart: 1.14±0.04 % injected dose per gram
  Intestine: 15.76±3.03 % injected dose per gram
  Kidney: 73.44±4.42 % injected dose per gram
  Liver: 33.97±4.98 % injected dose per gram
  Lung: 1.88±0.25 % injected dose per gram
  Muscle: 0.39±0.09 % injected dose per gram
  Pancreas: 0.70±0.13 % injected dose per gram
  Spleen: 0.82±0.11 % injected dose per gram
  Stomach: 0.89±0.40 % injected dose per organ
  Tumor: 1.37±0.24 % injected dose per gram
  T/B ratio: 0.42±0.04
  T/M ratio: 3.60±0.98
[1]
  intact form in kidneys: more than 90%
  intact form in liver: more than 90%
his-tagged FABP4; FABP4 over FABP3
  FABP4 binding relative to FABP3: 11.5 fold
his-tagged FABP4; FABP4 over FABP5
  FABP4 binding relative to FABP5: 33.2 fold
his-tagged FABP4; immobilized FABP4, 2 hr, room temperature
  binding to FABP4: 16.3±3.4 % dose/µg protein
his-tagged FABP3
  binding to FABP3: 1.4±0.5 % dose/µg protein
his-tagged FABP5
  binding to FABP5: 0.5±0.3 % dose/µg protein
